Patent publication US10004253B1, “Method for increasing the health condition of crustaceans in aquaculture, survival rate and pigmentation” (priority 2017, dated 2018)

Tests used:
P. monodon shrimp = assay: Total pigment and Astaxanthin enantiomers deposited, commercial ponds, Example 7; format: in vivo; details: feed with 60 ppm, sampled at three grams weight, lyophilized
Description: The concentration of total pigment in crustacean specimens extract was carried out by UV/VIS spectrophotometric methods measurement absorbance at 470 nm (A 1%=2100 in Hexane).
The Astaxanthin enantiometers deposited by the crustaceans specimens, or from its different organs, were quantified by HPLC after derivatization into the corresponding dicamphanates (Vecchi and Muller 1979).
7. —Comparison of the different Astaxanthin enantiomers deposited by P. monodon that were given the following three different diets: commercial feed as control; commercial feed containing 120 ppm of Lutein or Zeaxanthin Long Chain Diesters Concentrate; and commercial feed that contained 60 ppm of synthetic Astaxanthin (Carophyll Pink). […]
At three grams weight, the ponds were sampled, the specimens were lyophillized and the dehydrated samples were ground and analyzed.
The concentration of total pigment in the crustacean specimens extract was carried out by UV/Vis spectrophotometric methods measurement absorbance at 470 nm (A 1%=2100 in hexane).
The analysis of Astaxanthin R/S enantiomers deposited by the crustacean specimens, were quantified by HPLC after derivatization into the corresponding dicamphanates (Vecchi and Muller 1979), in order to differentiate the Astaxanthin enantiomers.

white shrimp L. vannamei = assay: Different sources and doses of carotenoids in balanced feed, 60 day treatment, Example 6; format: in vivo; details: 75 ppm in feed
From the text: 6. —Effects of different sources and doses of carotenoids in the balanced feed, growout, survival, and deposition of pigments in white shrimp L. vannamei. The following is a review of the results obtained regarding the dosing of Lutein/Zeaxanthin Long Chain Diesters in the feed, as compared to feed that contained synthetic Astaxanthin (Carophyll Pink). The average survival and final weight results of the experimental work with shrimp L. vannamei results, obtained after a 60 day treatment, are shown in Table V: […]

CC1=C(/C=C/C(C)=C/C=C/C(C)=C/C=C/C=C(C)/C=C/C=C(C)/C=C/C2=C(C)C(=O)[C@@H](O)CC2(C)C)C(C)(C)C[C@H](O)C1=O [ROCHE Astaxanthin, Astaxanthin]
Concentration of total pigment in specimens extract (UV/Vis 470 nm) (P. monodon shrimp): 152.5 ppm | FINAL WEIGHT grs (white shrimp L. vannamei): 7.77 grs | SURVIVAL % (white shrimp L. vannamei): 63.33% | ASTAX. IN HEAD (hepathopanchreas) (white shrimp L. vannamei; HPLC): 29.2 micrograms of Astaxanthin per gram of tissue | ASTAX. IN MUSCLE (white shrimp L. vannamei; HPLC): 11.4 micrograms of Astaxanthin per gram of tissue | ASTAX. IN SHELL (carapace) (white shrimp L. vannamei; HPLC): 75.1 micrograms of Astaxanthin per gram of tissue
